Key:
Histone deacetylase 1 [1] = biological target: T1, Histone deacetylase 1 (Mus musculus, UniProt O09106); test: Binding affinity towards HDAC1 (Histone deacetylase 1) in mouse A20 cells, expressed as binding constant (pKi); type: cell-based
Histone deacetylase 1 [2] = biological target: T1, Histone deacetylase 1; test: In vitro for anti-HDAC1 (Histone deacetylase 1) activity in mouse A20 cells; type: cell-based

T1 sequence (O09106 whole entry): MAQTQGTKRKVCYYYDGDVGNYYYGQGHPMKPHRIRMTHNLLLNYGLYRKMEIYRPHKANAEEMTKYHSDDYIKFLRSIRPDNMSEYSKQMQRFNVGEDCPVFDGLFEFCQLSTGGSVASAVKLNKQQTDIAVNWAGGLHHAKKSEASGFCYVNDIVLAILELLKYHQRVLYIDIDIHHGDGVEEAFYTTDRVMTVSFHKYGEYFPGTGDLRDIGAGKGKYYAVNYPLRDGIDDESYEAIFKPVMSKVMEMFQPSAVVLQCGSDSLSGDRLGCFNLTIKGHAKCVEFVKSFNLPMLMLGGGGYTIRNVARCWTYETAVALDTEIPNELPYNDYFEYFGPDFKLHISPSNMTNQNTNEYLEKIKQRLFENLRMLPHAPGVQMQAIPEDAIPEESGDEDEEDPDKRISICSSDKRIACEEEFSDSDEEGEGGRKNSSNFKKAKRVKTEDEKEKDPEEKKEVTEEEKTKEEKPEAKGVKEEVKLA

## Cc1ccc(C(=O)c2cc(/C=C/C(=O)NO)n(C)c2)cc1
Histone deacetylase 1 [1]
  Ki: 2.69 µM
Histone deacetylase 1 [2]
  IC50: 4.5 µM

## CN(C)c1ccc(C(=O)c2cc(/C=C/C(=O)NO)n(C)c2)cc1
Histone deacetylase 1 [1]
  Ki: 2.51 µM
Histone deacetylase 1 [2]
  IC50: 4.2 µM

## Cn1cc(C(=O)c2ccccc2)cc1/C=C/C(=O)NO
Histone deacetylase 1 [1]
  Ki: 2.95 µM
Histone deacetylase 1 [2]
  IC50: 4.9 µM

Source: ChEMBL document CHEMBL1135928, “Binding mode analysis of 3-(4-benzoyl-1-methyl-1H-2-pyrrolyl)-N-hydroxy-2-propenamide: a new synthetic histone deacetylase inhibitor inducing histone hyperacetylation, growth inhibition, and terminal cell differentiation” (J Med Chem, 2002)
